Measurements: patent US11779628B2, “Use of cell-permeable peptide inhibitors of the JNK signal transduction pathway for the treatment of various diseases” (Xigen Inflammation Ltd., priority 2014, dated 2023)
Where two headings read alike, the source gives them in different places.

Tested on: Sprague-Dawley albino rats, light-induced photoreceptor cell death
Type: in vivo
Conditions: Day 23
Source text: The aim of this study was to investigate the dose effect of XG-102 on light-induced photoreceptor cell death.
50 male Rat (Sprague-Dawley (albinos rat); approximately 8 weeks; 200-250 g (on ordering)) have been used. Rats are most commonly used in this experimental model. Animals were examined before study, and particular attention was paid to the eyes. Animals were held in observation for 2 weeks following their arrival. Animals were observed daily for signs of illness. Only healthy animals with no ocular abnormalities were accepted for use in experiments. Animals were housed individually in standard cages (420×270×190 mm)^ii. All animals were housed under identical environmental conditions. The temperature was held at 22±2° C. and the relative humidity at 55±10%. Rooms were continuously ventilated (15 times per hour). A cycle of 12 hours light (200-300 lx) and 12 hours darkness was automatically controlled. These parameters were continuously controlled and recorded. Throughout the study, animals had free access to food and water. They were fed a standard dry pellet diet. Tap water was available ad libitum from plastic bottles.
Forty-eight (48) rats were randomly divided into six (6) groups of eight (8) animals each. Test item (XG-102: 30 mg/ml, 3 mg/ml, and 0.3 mg/ml) and vehicle (0.9% NaCl) were administered by intravitreal injection in right eyes the day before induction. The reference (Phenyl-N-test-Butylnitrone (PBN) (50 mg/kg)) and vehicle were intraperitoneally injected 30 min before induction then, 3 times during 12 hours of light exposition, then once after induction. Animals were placed in constant light (7000 lux) for 24 h. Electroretinograms (ERG) were recorded before light treatment and on days 9, 16 and 23 after induction. Eyes were then taken for histology and outer nuclear layer (ONL) thickness assessment. The table below summarizes the allocation of animals in treatment groups:
For the intravitreal injection animals were anesthetized by intramuscular injection of a mixture of xylazine/ketamine. Test item (5 μl) and vehicle (5 μl) were injected in the right eye. The injection was performed under an operating microscope in the supratemporal area at pars plana using a 33G-needle mounted on a 50 μl Hamilton. The filled syringe was mounted into the UltraMicroPump III to achieve accurate injection in microliter range. Reference and vehicle were injected intraperitoneally at a dose volume of 2.5 ml/kg using a 30G-needle mounted on a 1 ml-syringe.
Light Exposure: The rats that had been dark-adapted overnight were exposed for 24 hours to a continuous white fluorescent light (7000 Ix) in clear plastic cages. Each cage contained one rat. After exposure, the rats returned to rearing cyclic light conditions.
ERG was recorded before induction and 7, 14 and 21 days after cessation of exposure (Days 9, 16 and 23) on right eyes of dark-adapted and anesthetized animals. The latency times (for a- and b-wave) and the a-wave and b-wave amplitudes were measured for each ERG; the latency times were expressed as millisecond and the a-wave and b-wave as a percentage of the baseline value obtained before light exposure. 15 min before measurement 10 μl Mydriaticum® (0.5% tropicamide) were instilled for pupillary dilatation.
ERG Parameters: • Color: white maximum. • Maximum intensity: 2.6 cd·s/m^2 (0 dB); Duration 0.24 ms; number of flash: 1. • Filter: 50 Hz. • Impedence Threshold: 90 kΩ.
Measurement of the ONL Thickness: After ERG testing, animal was euthanized by an overdose of pentobarbital and the right eyes were enucleated, fixed and embedded in paraffin. Sections (5 μm thick) were performed along the vertical meridian and stained with Trichrome-Masson. The vertical meridian included the optic nerve.
Group mean values and standard deviation were calculated. A statistical Mann and Whitney test was used to evaluate the differences between pair-wise groups. For comparison between time-point into each vehicle groups, a Friedman test was used. […]

SMILES: CC(C)C[C@@H](NC(=O)[C@@H](Cc1ccccc1)NC(=O)[C@H]1CCCN1C(=O)[C@@H](CCC(N)=O)NC(=O)[C@H](NC(=O)[C@H]1CCCN1C(=O)[C@@H](CCCNC(=N)N)NC(=O)[C@@H](CO)NC(=O)[C@@H](CCC(N)=O)NC(=O)[C@H](N)CC(=O)O)C(C)C)C(=O)N[C@H](CC(N)=O)C(=O)N[C@H](CC(C)C)C(=O)N[C@@H](C(=O)N[C@@H](C(=O)N1CCC[C@@H]1C(=O)N[C@H](CCCNC(=N)N)C(=O)N[C@H](CCCCN)C(=O)N1CCC[C@@H]1C(=O)N[C@H](CCCNC(=N)N)C(=O)N1CCC[C@@H]1C(=O)N1CCC[C@@H]1C(=O)N[C@H](CCCNC(=N)N)C(=O)N[C@H](CCCNC(=N)N)C(=O)N[C@H](CCCNC(=N)N)C(=O)N[C@H](CCC(N)=O)C(=O)N[C@H](CCCNC(=N)N)C(=O)N[C@H](CCCNC(=N)N)C(=O)N[C@H](CCCCN)C(=O)N[C@H](CCCCN)C(=O)N[C@H](CCCNC(=N)N)C(=O)NCC(=O)O)[C@H](C)O)[C@H](C)O [XG-102]
- protection of ONL thickness (high dose XG-102): No protection was observed with high dose XG-102
- recovery of the a-wave (% of baseline) (low dose 1.5 μg/eye): 48.3%
- loss of the mean ONL thickness (low dose XG-102): 40%
- loss of the mean ONL thickness (mid dose XG-102): 40%
